Laboratory results: PMC6600241, “Identification and Structure-Activity Studies of 1,3-Dibenzyl-2-aryl imidazolidines as Novel Hsp90 Inhibitors” (Molecules, 2019)
Like-named read-outs stand apart in the source and are kept apart here.

Legend:
MCF-7 cells = assay: MTT anti-proliferative assay on MCF-7 cells; type: cell-based, human
Description: (§1) The anti-proliferative activity of compounds was determined by MTT (3-[4,5-dimethylthiazole-2-yl]-2,5-diphenyltetrazolium bromide) assay on MCF-7 and A549 cell lines, respectively. Cells were purchased from the Institute of Basic Medical Science, Chinese Academy of Medical Science (Beijing, China). Cells were maintained in RPMI-1640 with 10% fetal bovine serum (FBS) and 1% Penicillin-Streptomycin Solution (PS) and cultured at 37 °C in a humidified atmosphere containing 5% CO2. Compounds to be evaluated were dissolved in DMSO (dimethyl sulfoxide), diluted in RPMI-1640, and stored at −20 °C before use. Cells were seeded in 96-well plates at a density of 5000 cells/well (200 μL) and incubated overnight. Culture medium was replaced with fresh RPMI (Roswell Park Memorial Institute)-1640 containing compounds in different concentrations (100 μM–50 μM–25 μM–12.5 μM–6.25 μM–3.125 μM). Then, cells were incubated in a 5% CO2 incubator for 48 h. The 20 μL MTT solution (5 mg/mL) was added to each well and incubated at 37 °C. After 4 h, the medium was removed and formazan crystals were dissolved in 100 μL DMSO. Absorbance was measured at a wavelength of 490 nm using Synergy H1 (BioTek Instruments, Inc., Winooski, VT, USA). IC50 values were calculated by GraphPad Prism 5 (GraphPad Software, Inc., San Diego, CA, USA).

A549 cells = assay: MTT anti-proliferative assay on A549 cells; type: cell-based, human; conditions: mean ± SD, three experiments
Description: as §1

Her2 = assay: Western blotting, Her2 expression in MCF-7 cells; type: cell-based, human; conditions: 24 h
Description: (§2) Primary antibodies against Hsp70, Hsp90, Her2, and GAPDH were bought from Abcam (Cambridge, MA, USA). HRP (horseradish peroxidase) labeled anti-rabbit immunoglobulin G (H + L) secondary antibody was purchased from Abbkine (Redlands, CA, USA). MCF-7 cells were cultured as described above to a density of 10^6 cells per dish. […] Cells were washed with cold phosphate buffered saline (PBS, pH = 7.4) three times and lysed in radio immunoprecipitation assay (RIPA) lysate (containing 1% phenylmethanesulfonyl fluoride (PMSF)) on ice for 45 min. The lysates were collected and clarified at 12,000× g for 20 min at 4 °C using high speed refrigerated centrifuge. Protein concentration was determined by the bicinchoninic acid (BCA) protein assay kit. The protein sample (20 µg) was electrophoresed using 8% SDS-PAGE (sodium dodecyl sulfate- polyacrylamide gel electrophoresis), transferred to poly(vinylidene fluoride) (PVDF) membranes, and then blocked for 1 h in 5% skim milk in TBST (20 mM Tris-HCl pH 7.4, 100 mM NaCl, and 0.1% Tween 20). The membranes were immunoblotted with primary antibodies for 2 h at room temperature. After incubation with an HRP anti-rabbit IgG (H + L) (1:100,000) as a secondary antibody, the bands were detected using the ECL^TM Prime Western Blotting Detection System (ProteinSimple, San Jose, CA, USA). The density of proteins was determined using the AlphaView SA (Alpha Innotech Corp., version 3.4.0.0, San Leandro, CA, USA).

Hsp90 = assay: Western blotting, Hsp90 expression in MCF-7 cells; type: cell-based, human; conditions: 24 h; for expression of Hsp90: MCF-7 cells, compound at IC50 concentration
Description: as §2

human Hsp90α = biological target: T1, human Hsp90α (Homo sapiens, UniProt P07900); assay: Fluorescence polarization (FP) competitive binding assay, Hsp90α N-Terminal Domain Assay Kit; conditions: FITC-labeled geldanamycin competition, mean ± SD, three experiments
T1 construct: FP assay using Hsp90α N-Terminal Domain Assay Kit (BPS Bioscience, Catalog #50293, CA, USA); purchased BPS Bioscience 50293
Description: In brief, the Hsp90 assay buffer (15 μL), 40 mM dithiothreitol (DTT) (5 μL), 2 mg/mL BSA (5 μL), and H2O (40 μL) were added to the plate. To each well, 100 nM fluorescein isothiocyanate (FITC)-labeled geldanamycin (5 μL) and diluted compounds in different concentrations (0.5, 5, 50, 500 μM, 10 μL) were added in an orderly manner. The reactions were initiated by adding 20 μL of Hsp90α (17 ng/μL). […] The data were analyzed using GraphPad Prism 5 (GraphPad Software, Inc.).

Hsp70 = assay: Western blotting, Hsp70 expression in MCF-7 cells; type: cell-based, human; conditions: 24 h; for expression of Hsp70: MCF-7 cells, compound at IC50 concentration
Description: as §2

[1] = Homo sapiens, MCF7, Figure 3, mean ± SD, n = 3, read-out: anti-proliferative activity against MCF-7 cells (IC50), top 21 molecules from virtual screening
[2] = Homo sapiens, MCF7, MTT, 48-h post treatment, mean ± SD, three experiments, read-out: IC50 MCF-7
[3] = MCF-7 cells, compound at IC50 concentration
[4] = Homo sapiens, A549, 48-h post treatment
[5] = MCF-7 cells, 0, 5, 10, 20 and 40 µM

1,3-dibenzyl-2-(3-bromo-5-thiazolyl)-imidazolidine [Compound 4k]
IC50 (MCF-7 cells; MTT, 48-h post treatment, mean ± SD, three experiments, read-out: IC50 MCF-7): 77.01 ± 0.01 µM | IC50 (A549 cells; 48-h post treatment): 498.8 ± 0.25 µM

COc1ccc(-c2nnc(SCC(=O)N3CCOCC3)n2Cc2ccccc2)cc1 [Compound 1b]
IC50 (MCF-7 cells; [1]): 133.6 ± 1.13 µM

CCOC(=O)c1nnn(Cc2ccccc2Cl)c1NC(=O)CN1CCC(C)CC1 [Compound 1c]
IC50 (MCF-7 cells; [1]): 134 ± 0.42 µM

NC(=O)c1nnn(Cc2ccccc2)c1NC(=O)CSc1nnc(-c2ccco2)o1 [Compound 1d]
IC50 (MCF-7 cells; [1]): 243.3 ± 0.99 µM

O=C(Cn1c(-c2ccccn2)nc2ccccc21)NCCc1ccccc1 [Compound 2a]
IC50 (MCF-7 cells; [1]): 190.6 ± 1.41 µM

O=C(Cn1c(-c2ccccn2)nc2ccccc21)NCCCN1CCOCC1 [Compound 2b]
IC50 (MCF-7 cells; [1]): 310.5 ± 0.71 µM

COc1ccc(C(=O)/C=C/Nc2ccc(S(=O)(=O)Nc3ccc(OC)nn3)cc2)cc1 [Compound 3a]
IC50 (MCF-7 cells; [1]): 29.2 ± 0.34 µM

Cc1cc(NC(=O)CCS(=O)(=O)c2nc(-c3ccc4c(c3)OCO4)cc(C(F)(F)F)n2)no1 [Compound 3b]
IC50 (MCF-7 cells; [1]): 32.4 ± 0.55 µM

O=S(=O)(c1ccccc1)c1nc(-c2ccc(Cl)cc2)oc1NCCCN1CCOCC1 [Compound 3d]
IC50 (MCF-7 cells; [1]): 70.34 ± 0.2 µM

O=S(=O)(c1ccccc1)c1nc(-c2ccco2)oc1NCc1ccc(F)cc1 [Compound 3e]
IC50 (MCF-7 cells; [1]): 238 ± 0.71 µM

O=[N+]([O-])c1ccc(C2N(Cc3ccccc3)CCN2Cc2ccccc2)s1 [Compound 4a]
IC50 (MCF-7 cells; [2]): 21.6 ± 0.57 µM | expression level of Her2 (Her2; [3]): significantly down-regulated | expression level of Her2 down-regulated to (Her2; [3]): 48% | IC50 (A549 cells; [4]): 31.22 ± 0.31 µM | expression of Hsp90 (Hsp90): slightly increased | IC50 (human Hsp90α): 0.012 ± 0.01 µM | expression of Hsp70 (Hsp70): significantly induced

Cc1ccc(O)c(C2N(Cc3ccccc3)CCN2Cc2ccccc2)c1 [Compound 4b]
IC50 (MCF-7 cells; [2]): 50.62 ± 0.26 µM | expression level of Her2 (Her2; [3]): significantly down-regulated | IC50 (A549 cells; [4]): 88.58 ± 0.08 µM | expression of Hsp90 (Hsp90): slightly increased | IC50 (human Hsp90α): 0.612 ± 0.014 µM | expression of Hsp70 (Hsp70): significantly induced

c1ccc(CN2CCN(Cc3ccccc3)C2c2cccs2)cc1 [Compound 4c, 1,3-dibenzyl-2-thiophene-imidazolidine]
IC50 (MCF-7 cells; [2]): 80.04 ± 0.63 µM | IC50 (A549 cells; [4]): 78.18 ± 0.15 µM

Clc1ccc(C2N(Cc3ccccc3)CCN2Cc2ccccc2)s1 [Compound 4d, 1,3-dibenzyl-2-(5-chlorothiophene)-imidazolidine]
IC50 (MCF-7 cells; [2]): 68.35 ± 0.44 µM | IC50 (A549 cells; [4]): 56.3 ± 1.27 µM | IC50 (human Hsp90α): 0.672 ± 0.01 µM

Cc1ccc(C2N(Cc3ccccc3)CCN2Cc2ccccc2)s1 [Compound 4e, 1,3-dibenzyl-2-(5-Methylthiophene)-imidazolidine]
IC50 (MCF-7 cells; [2]): 119.3 ± 0.42 µM | IC50 (A549 cells; [4]): 113 ± 1.41 µM

c1ccc(CN2CCN(Cc3ccccc3)C2c2cc3ccccc3s2)cc1 [Compound 4f, 1,3-dibenzyl-2-(1-benzothiophene)-imidazolidine]
IC50 (MCF-7 cells; [2]): 219.4 ± 0.57 µM | IC50 (A549 cells; [4]): 136 ± 1.41 µM

O=[N+]([O-])c1ccccc1C1N(Cc2ccccc2)CCN1Cc1ccccc1 [Compound 4g, 1,3-dibenzyl-2-(2-nitro-phenyl)-imidazolidine]
IC50 (MCF-7 cells; [2]): 40.91 ± 0.05 µM | IC50 (A549 cells; [4]): 40.6 ± 0.51 µM

O=[N+]([O-])c1ccc(C2N(Cc3ccccc3)CCN2Cc2ccccc2)cc1 [Compound 4h, 1,3-dibenzyl-2-(4-nitro-phenyl)-imidazolidine]
IC50 (MCF-7 cells; [2]): 117.7 ± 0.01 µM | IC50 (A549 cells; [4]): 55.6 ± 0.49 µM

Fc1ccc(Cl)cc1C1N(Cc2ccccc2)CCN1Cc1ccccc1 [Compound 4i, 1,3-dibenzyl-2-(5-chloro-2-fluoro-phenyl)-imidazolidine]
IC50 (MCF-7 cells; [2]): 27.86 ± 0.01 µM | IC50 (A549 cells; [4]): 59.3 ± 0.83 µM | IC50 (human Hsp90α): 0.61 ± 0.014 µM

Clc1ncc(C2N(Cc3ccccc3)CCN2Cc2ccccc2)s1 [Compound 4j, 1,3-dibenzyl-2-(2-chloro-5-thiazolyl)-imidazolidine]
IC50 (MCF-7 cells; [2]): 33.12 ± 0.23 µM | expression level of Her2 regulated (Her2; [5]): concentration-dependent manner | IC50 (A549 cells; [4]): 35.3 ± 0.14 µM | expression level of Hsp90 regulated (Hsp90; [5]): concentration-dependent manner | IC50 (human Hsp90α): 0.31 ± 0.014 µM | expression level of Hsp70 regulated (Hsp70; [5]): concentration-dependent manner

Clc1ccc(C2N(Cc3ccccc3)CCN2Cc2ccccc2)c(Cl)n1 [Compound 4n]
IC50 (MCF-7 cells; [2]): 40.4 ± 0.51 µM | IC50 (A549 cells; [4]): 52.11 ± 0.5 µM | IC50 (human Hsp90α): 0.102 ± 0.01 µM

Brc1cncc(C2N(Cc3ccccc3)CCN2Cc2ccccc2)c1 [Compound 4p]
IC50 (MCF-7 cells; [2]): 45.2 ± 0.63 µM | IC50 (A549 cells; [4]): 72.87 ± 0.66 µM

c1ccc(CN2CCN(Cc3ccccc3)C2c2cncnc2)cc1 [Compound 4r]
IC50 (MCF-7 cells; [2]): 51.4 ± 0.54 µM | IC50 (A549 cells; [4]): 80.8 ± 1 µM

c1ccc(N2CCN(c3ccccc3)C2c2ccco2)cc1 [Compound 6a]
IC50 (MCF-7 cells; [2]): 40.77 ± 0.39 µM | IC50 (A549 cells; [4]): 123.4 ± 0.85 µM

Clc1ncc(C2N(c3ccccc3)CCN2c2ccccc2)s1 [Compound 6b]
IC50 (MCF-7 cells; [2]): 161.6 ± 0.57 µM | IC50 (A549 cells; [4]): 172 ± 1.41 µM

Fc1ccc(Cl)cc1C1N(c2ccccc2)CCN1c1ccccc1 [Compound 6c]
IC50 (MCF-7 cells; [2]): 43.7 ± 1.03 µM | IC50 (A549 cells; [4]): 46.14 ± 0.2 µM | IC50 (human Hsp90α): 1.93 ± 0.013 µM

Clc1ccc(C2N(c3ccccc3)CCN2c2ccccc2)c(Cl)n1 [Compound 6d]
IC50 (MCF-7 cells; [2]): 323 ± 2.28 µM | IC50 (A549 cells; [4]): 248.6 ± 0.57 µM

CCN1CCN(CC)C1c1ccnc(Cl)c1 [Compound 7a]
IC50 (MCF-7 cells; [2]): > 500 µM | IC50 (A549 cells; [4]): 250.1 ± 1.27 µM

CCN1CCN(CC)C1c1cc(Cl)ccc1F [Compound 7b]
IC50 (MCF-7 cells; [2]): 158.9 ± 0.14 µM | IC50 (A549 cells; [4]): 164 ± 1.41 µM

CN1CCN(C)C1c1cc(Cl)ccc1F [Compound 8a]
IC50 (MCF-7 cells; [2]): 250.1 ± 0.27 µM | IC50 (A549 cells; [4]): 149 ± 1.56 µM

C=CCNC1=C2CC(C)CC(OC)C(O)C(C)C=C(C)C(OC(N)=O)C(OC)C=CC=C(C)C(=O)NC(=CC1=O)C2=O (stereo not shown) [Compound 17-AAG, reference compound]
IC50 (MCF-7 cells; [2]): 7.18 ± 0.13 µM | IC50 (A549 cells; [4]): 3.54 ± 0.08 µM
